#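 Values below derive from 48-hour exposures of cells grown in 96-well plates, with endpoints linearly interpolated between the two concentrations bracketing the appropriate inhibition level. GI50 is the concentration that inhibits growth by half. The concentration for full growth arrest is given as TGI.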 Where a SMILES comes first, the peptide text is derived from it. The star is where a group is joined. Cbz = O=C(OCc1ccccc1)*; Bn = c1ccc(C*)cc1
# Columns and labels:
# Assay in all cases: NCI tumour cell line growth inhibition, 48 h
# MDA-MB-231 breast = system: MDA-MB-231 breast
# MDA-N = system: MDA-N
# DU-145 prostate = system: DU-145 prostate
# BT-549 breast = system: BT-549 breast
# PC-3 prostate = system: PC-3 prostate
# MDA-MB-435 = system: MDA-MB-435
# KM20L2 colon = system: KM20L2 colon
# P388 leukemia = system: P388 leukemia
# P388/ADR leukemia = system: P388/ADR leukemia
# SN12K1 renal = system: SN12K1 renal
# RXF-631 renal = system: RXF-631 renal
# LXFL 529 NSCLC = system: LXFL 529 NSCLC
# T-47D breast = system: T-47D breast
# HS 578T breast = system: HS 578T breast
# 786-0 renal = system: 786-0 renal
structure (smiles),measurement,setting,value
CS(=O)(=O)c1ccc2nc(-c3ccc(O)cc3)sc2c1,TGI,MDA-MB-231 breast,42.5 µM
same,TGI,MDA-N,34.4 µM
same,TGI,DU-145 prostate,29.6 µM
same,TGI,BT-549 breast,30.5 µM
same,TGI,PC-3 prostate,32.1 µM
same,TGI,MDA-MB-435,37.8 µM
CCn1c(=O)c(C(=O)O)c(Cl)c2cc3c(cc21)OCO3,TGI,KM20L2 colon,> 100 µM
same,TGI,P388 leukemia,> 100 µM
same,TGI,P388/ADR leukemia,> 100 µM
same,TGI,SN12K1 renal,> 100 µM
CC(=O)OCC1OC(NC(=O)N(CCCl)N=O)C(OC(C)=O)C(OC(C)=O)C1OC(C)=O (configuration not stated),TGI,KM20L2 colon,> 100 µM
same,TGI,P388 leukemia,> 100 µM
same,TGI,P388/ADR leukemia,> 100 µM
same,TGI,SN12K1 renal,> 100 µM
CC1C[C@]2(C[C@@H](C)C(=O)O2)OC2CC3(C)C4CCC5C(C)(C)OC(=O)CC[C@@]56C[C@@]46CC[C@]3(C)C12 (some centres not stated),TGI,RXF-631 renal,> 100 µM
same,TGI,LXFL 529 NSCLC,> 100 µM
c1ccc(-c2n(Cc3ccc4ccccc4c3)c3ccccc3[n+]2Cc2ccc3ccccc3c2)cc1,GI50,MDA-MB-231 breast,289 nM
same,TGI,MDA-MB-231 breast,1.3 µM
same,GI50,DU-145 prostate,441 nM
same,TGI,DU-145 prostate,1.64 µM
same,GI50,PC-3 prostate,270 nM
same,TGI,PC-3 prostate,1.13 µM
same,GI50,MDA-MB-435,288 nM
same,TGI,MDA-MB-435,1.06 µM
COc1ccc(N2C(=O)/C(=C\c3ccccc3)SC2c2cc(OC)c(OC)c(OC)c2)cc1 (configuration not stated),TGI,MDA-MB-231 breast,> 100 µM
same,TGI,MDA-N,44.8 µM
same,TGI,BT-549 breast,> 100 µM
same,TGI,T-47D breast,> 100 µM
same,TGI,PC-3 prostate,> 100 µM
same,TGI,MDA-MB-435,79.7 µM
same,TGI,HS 578T breast,> 100 µM
CCCCSCC(NC(=O)/C=C/c1c(C)[nH]c(=O)[nH]c1=O)C(=O)OC (configuration not stated),TGI,KM20L2 colon,355 µM
same,TGI,P388 leukemia,137 µM
same,TGI,P388/ADR leukemia,> 450 µM
same,TGI,SN12K1 renal,173 µM
O=C1c2cccc(O)c2C(=O)c2c(O)cccc21,TGI,786-0 renal,> 100 µM
same,TGI,KM20L2 colon,> 100 µM
same,TGI,LXFL 529 NSCLC,> 100 µM
C1CSCCSCSCCS1,TGI,MDA-MB-231 breast,> 100 µM
same,TGI,MDA-N,> 100 µM
same,TGI,DU-145 prostate,> 100 µM
same,TGI,BT-549 breast,> 100 µM
same,TGI,T-47D breast,> 100 µM
same,TGI,PC-3 prostate,> 100 µM
same,TGI,MDA-MB-435,> 100 µM
same,TGI,HS 578T breast,> 100 µM
CN(C)CCOc1cc2c(c3ccccc13)-c1ccccc1C2O (configuration not stated),TGI,KM20L2 colon,29.9 µM
same,TGI,P388 leukemia,> 100 µM
same,TGI,P388/ADR leukemia,33.3 µM
same,TGI,SN12K1 renal,19.5 µM
C=CCOCCC(CC=C)C(=O)CC(=O)OC (configuration not stated),TGI,KM20L2 colon,> 100 µM
COC(=O)C(Cc1ccc(O)cc1)NC(=O)C(COCc1ccccc1)NC(=O)OCc1ccccc1 (configuration not stated) (Cbz-Ser(Bn)-Tyr-OMe; configuration not given here),TGI,MDA-MB-231 breast,33.1 µM
same,TGI,MDA-N,31.4 µM
same,TGI,DU-145 prostate,31.8 µM
same,TGI,BT-549 breast,> 100 µM
same,TGI,T-47D breast,39.5 µM
same,TGI,PC-3 prostate,33.3 µM
same,TGI,MDA-MB-435,34.1 µM
same,TGI,HS 578T breast,53 µM
NC(=O)c1ccc([N+](=O)[O-])cc1,TGI,786-0 renal,> 100 µM
same,TGI,RXF-631 renal,> 100 µM
same,TGI,KM20L2 colon,> 100 µM
same,TGI,LXFL 529 NSCLC,> 100 µM
O=C(Nc1ccc(Cl)cc1)c1cc([N+](=O)[O-])ccc1O,TGI,786-0 renal,> 46.8 µM
same,TGI,RXF-631 renal,> 45.7 µM
same,TGI,KM20L2 colon,> 50.9 µM
same,TGI,LXFL 529 NSCLC,16.8 µM

# From PubChem BioAssay (NCI)
